In US11866430B2, “Naphthyridinone compounds useful as T cell activators” (priority 2018, dated 2024) one finds IC50 data, which are given here for 10 compounds.

Where two headings read alike, the source gives them in different places. A value given as a limit tells only on which side of the number the result lay.

Assay [1] addresses T1, human DGKα (Homo sapiens (Human), UniProt P23743). In words: biochemical. Summed up:
(§1)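 Enzymes were baculovirus/Sf9 full-length human DGKα or DGKζ with His tag. The substrate was PS/DAG in octyl glucoside micelles, in MOPS pH 7.5 buffer with NaCl, MgCl2, CaCl2 and DTT.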

Assay [2] relates to pre-activated CD4 T cells and Raji cells. Kind of assay: Raji CD4 T Cell IL2 Assay. In kind it is cell-based.
In assay [3] the target is T2, human DGKζ (Homo sapiens (Human), UniProt Q13574). In words: DGKζ assay (detergent/lipid micelle substrate). In kind it is biochemical. Put shortly:
as §1

In assay [4] the target is T1, human DGKα. Kind of assay: DGKα LIPGLO assay (extruded liposome substrate). In kind it is biochemical. The method, then: The DGKα and DGKζ reactions were performed using either extruded liposome (DGKα and DGKζ LIPGLO assays) or detergent/lipid micelle substrate (DGKα and DGKζ assays). The reactions were carried out in 50 mM MOPS pH 7.5, 100 mM NaCl, 10 mM MgCl2, 1 μM CaCl2, and 1 mM DTT (assay buffer). The reactions using a detergent/lipid micelle substrate also contained 50 mM octyl B-D-glucopyranoside. […] The lipid substrate concentrations were […], 0.25 mM DAG, and 2.75 mM PC for the extruded liposome reactions.
(§2) The compound inhibition studies were carried out as follows: 50 nL droplets of each test compound (top concentration 10 mM with 11 point, 3-fold dilution series for each compound) solubilized in DMSO were transferred to wells of a white 1536 well plate (Corning 3725). A 5 mL enzyme/substrate solution at 2× final reaction concentration was prepared by combining 2.5 mL 4× enzyme solution (20 nM DGKα or DGKζ (prepared as described below) in assay buffer) and 2.5 mL of either 4× liposome or 4× detergent/lipid micelle solution (compositions described below) and incubated at room temperature for 10 minutes. Next, 1 μL 2× enzyme/substrate solution was added to wells containing the test compound and reactions were initiated with the addition of 1 μL 300 uM ATP. The reactions were allowed to proceed for 1 hr, after which 2 μL Glo Reagent (Promega V9101) was added and incubated for 40 minutes. Next, 4 μL Kinase Detection Reagent was added and incubated for 30 minutes. Luminescence was recorded using an EnVision microplate reader. […] The compounds were evaluated at 11 concentrations to determine IC50.
(§3) The PC, DAG, and PS were dissolved in chloroform, combined, and dried in vacuo to a thin film. The lipids were hydrated to 20 mM in 50 mM MOPS pH 7.5, 100 mM NaCl, 5 mM MgCl2, and were freeze-thawed five times. The lipid suspension was extruded through a 100 nm polycarbonate filter eleven times. […] The liposome preparation was stored at 4° C. for as long as four weeks.
Human DGK-alpha-TVMV-His-pFBgate and human DCK-zeta-transcript variant-2-TVMV-His-pFBgate baculovirus samples were generated using the Bac-to-Bac baculovirus expression system (Invitrogen) according to the manufacturer's protocol. The DNA used for expression of DGK-alpha and DGK-zeta have SEQ ID NOs: 1 and 3, respectively. Baculovirus amplification was achieved using infected Sf9 cells at 1:1500 virus/cell ratios, and grown for 65 hours at 27° C. post-transfection.
(§4) The expression scale up for each protein was carried out in the Cellbag 50 L WAVE-Bioreactor System 20/50 from GE Healthcare Bioscience. 12 L of 2×10^6 cells/mL Sf9 cells (Expression System, Davis, Calif.) grown in ESF921 insect medium (Expression System) were infected with virus stock at 1:200 virus/cell ratios, and grown for 66-68 hours at 27° C. post-infection. The infected cell culture was harvested by centrifugation at 2000 rpm for 20 min 4° C. in a SORVALL® RC12BP centrifuge. The cell pellets were stored at −70° C. until purification.
Full length human DGKα and DGKζ, each expressed containing a TVMV-cleavable C-terminal Hexa-His tag sequence (SEQ ID NOs: 2 and 4, respectively) and produced as described above, were purified from Sf) baculovirus-infected insect cell paste. The cells were lysed using nitrogen cavitation method with a nitrogen bomb (Parr Instruments), and the lysates were clarified by centrifugation. […] The three steps column chromatography included nickel affinity resin capture (i.e. HisTrap FF crude, GE Healthcare), followed by size exclusion chromatography (i.e. HiLoad 26/600 Superdex 200 prep grade, GE Healthcare for DGK-alpha, and HiPrep 26/600 Sephacryl S 300_HR, GE Healthcare for DGK-zeta). The third step was ion exchange chromatography, and differed for the two isoforms.

Assay [5] addresses T2, human DGKζ. In words: DGKζ LIPGLO assay (extruded liposome substrate). In kind it is biochemical. As for the experimental part:
The DGKα and DGKζ reactions were performed using either extruded liposome (DGKα and DGKζ LIPGLO assays) or detergent/lipid micelle substrate (DGKα and DGKζ assays). The reactions were carried out in 50 mM MOPS pH 7.5, 100 mM NaCl, 10 mM MgCl2, 1 μM CaCl2, and 1 mM DTT (assay buffer). The reactions using a detergent/lipid micelle substrate also contained 50 mM octyl B-D-glucopyranoside.
as §2, with “A” for “The compound inhibition studies were carried out as follows: 50 nL droplets of each test compound (top concentration 10 mM with 11 point, 3-fold dilution series for each compound) solubilized in DMSO were transferred to wells of a white 1536 well plate (Corning 3725). A”
as §3
Baculovirus amplification was achieved using infected Sf9 cells at 1:1500 virus/cell ratios, and grown for 65 hours at 27° C. post-transfection.
as §4
The cells were lysed using nitrogen cavitation method with a nitrogen bomb (Parr Instruments), and the lysates were clarified by centrifugation. […] The three steps column chromatography included nickel affinity resin capture (i.e. HisTrap FF crude, GE Healthcare), followed by size exclusion chromatography (i.e. HiLoad 26/600 Superdex 200 prep grade, GE Healthcare for DGK-alpha, and HiPrep 26/600 Sephacryl S 300_HR, GE Healthcare for DGK-zeta). The third step was ion exchange chromatography, and differed for the two isoforms. DGKα was polished using Q-Sepharose anion exchange chromatography (GE Healthcare). DGKζ was polished using SP Sepharose cation exchange chromatography (GE Healthcare). The proteins were delivered at concentrations of ≥2 mg/mL. The formulation buffers were identical for both proteins: 50 mM Hepes, pH 7.2, 500 mM NaCl, 10% v/v glycerol, 1 mM TCEP, and 0.5 mM EDTA.

Setting [6] is: detergent/lipid micelle substrate, read-out: DGKα IC50.
Where [7] appears, read: detergent/lipid micelle substrate, read-out: DGKζ IC50.
The mark [8] stands for this setting: extruded liposome substrate, read-out: DGKζ LIPGLO IC50.
The mark [9] stands for this setting: DGKζ IC50, detergent/lipid micelle substrate.
Setting [10] is: DGKζ LIPGLO IC50, extruded liposome substrate.

T1 sequence (P23743 other isoform, or with tags, fused parts or gaps): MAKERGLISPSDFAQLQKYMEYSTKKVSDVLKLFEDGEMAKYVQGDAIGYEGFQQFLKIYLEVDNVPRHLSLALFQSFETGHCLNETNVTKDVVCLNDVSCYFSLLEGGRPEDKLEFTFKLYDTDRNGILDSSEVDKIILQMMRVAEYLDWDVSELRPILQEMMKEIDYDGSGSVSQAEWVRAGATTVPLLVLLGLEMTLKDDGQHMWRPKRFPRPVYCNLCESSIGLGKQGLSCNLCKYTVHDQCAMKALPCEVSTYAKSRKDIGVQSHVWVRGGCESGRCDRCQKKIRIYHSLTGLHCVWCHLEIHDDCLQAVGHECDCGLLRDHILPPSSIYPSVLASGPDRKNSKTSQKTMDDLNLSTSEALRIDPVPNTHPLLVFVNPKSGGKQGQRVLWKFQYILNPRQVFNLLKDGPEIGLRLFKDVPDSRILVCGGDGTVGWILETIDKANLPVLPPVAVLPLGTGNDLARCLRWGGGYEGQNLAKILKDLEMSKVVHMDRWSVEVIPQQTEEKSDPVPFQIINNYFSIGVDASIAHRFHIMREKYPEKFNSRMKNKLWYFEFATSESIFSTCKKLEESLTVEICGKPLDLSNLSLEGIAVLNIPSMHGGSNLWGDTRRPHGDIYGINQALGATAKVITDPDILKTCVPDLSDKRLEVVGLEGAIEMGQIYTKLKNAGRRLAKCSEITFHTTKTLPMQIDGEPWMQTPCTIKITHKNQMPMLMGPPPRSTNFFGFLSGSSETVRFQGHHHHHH
T2 sequence (Q13574 other isoform, or with tags, fused parts or gaps): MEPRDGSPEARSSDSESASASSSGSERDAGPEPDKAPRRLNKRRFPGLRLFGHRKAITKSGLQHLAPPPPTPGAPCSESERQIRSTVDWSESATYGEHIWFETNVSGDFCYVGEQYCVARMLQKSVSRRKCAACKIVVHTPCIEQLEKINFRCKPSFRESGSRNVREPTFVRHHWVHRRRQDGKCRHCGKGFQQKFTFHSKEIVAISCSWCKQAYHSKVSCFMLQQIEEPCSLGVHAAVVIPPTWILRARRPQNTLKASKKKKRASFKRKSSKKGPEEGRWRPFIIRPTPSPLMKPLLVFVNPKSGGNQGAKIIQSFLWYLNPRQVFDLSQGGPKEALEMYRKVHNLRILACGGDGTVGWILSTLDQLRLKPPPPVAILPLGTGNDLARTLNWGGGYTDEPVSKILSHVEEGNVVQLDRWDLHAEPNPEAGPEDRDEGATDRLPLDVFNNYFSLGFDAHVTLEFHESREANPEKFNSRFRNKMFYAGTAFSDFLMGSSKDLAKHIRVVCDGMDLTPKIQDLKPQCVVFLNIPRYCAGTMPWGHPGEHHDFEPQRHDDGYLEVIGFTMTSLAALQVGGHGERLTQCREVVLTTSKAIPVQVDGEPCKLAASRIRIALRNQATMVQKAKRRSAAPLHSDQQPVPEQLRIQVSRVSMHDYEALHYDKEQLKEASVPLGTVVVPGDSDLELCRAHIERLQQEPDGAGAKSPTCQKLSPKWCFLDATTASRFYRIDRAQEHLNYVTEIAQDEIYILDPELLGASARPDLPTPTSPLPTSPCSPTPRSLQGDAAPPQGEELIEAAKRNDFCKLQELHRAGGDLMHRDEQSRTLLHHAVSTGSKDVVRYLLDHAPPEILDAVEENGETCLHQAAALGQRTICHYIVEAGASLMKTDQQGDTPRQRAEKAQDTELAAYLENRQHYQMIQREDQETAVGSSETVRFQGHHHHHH

A word on the IC50: it is the concentration needed to halve the response being measured. For the compound `COc1cc(F)ccc1C(c1ccc(F)cc1)N1CCN(c2c(C#N)c(=O)n(C)c3ccc(Br)nc23)CC1` (single isomer, unassigned) [Example 16, 6-bromo-4-{4-[(4-fluoro-2-methoxyphenyl)(4-fluorophenyl)methyl]piperazin-1-yl}-1-methyl-2-oxo-1,2-dihydro-1,5-naphthyridine-3-carbonitrile], the IC50 at human DGKα [1] (setting [6]) was 6400 nM; in assay [2] (Homo sapiens, Raji) it was 21 nM; at human DGKζ [3] (setting [7]), above 240000 nM; against human DGKα [4], 4300 nM; on human DGKζ [5] (setting [8]), 27000 nM.
As to `CC(c1ccc(F)cc1)N1CCN(c2c(C#N)c(=O)n(C)c3ccc(Br)nc23)CC1` (single isomer, unassigned) [Example 23, 6-bromo-4-{4-[1-(4-fluorophenyl)ethyl]piperazin-1-yl}-1-methyl-2-oxo-1,2-dihydro-1,5-naphthyridine-3-carbonitrile], the half-inhibitory concentration (IC50) is 610 nM on human DGKα [1] (setting [6]); 41 nM in assay [2]; above 240000 nM at human DGKζ [3] (setting [7]); 1900 nM against human DGKα [4]; 13000 nM at human DGKζ [5] (setting [8]).
The corresponding values for `CC(c1ccc(F)cc1)N1CCN(c2c(C#N)c(=O)n(C)c3ccc(Br)nc23)CC1` (single isomer, unassigned) [Example 24, 6-bromo-4-{4-[1-(4-fluorophenyl)ethyl]piperazin-1-yl}-1-methyl-2-oxo-1,2-dihydro-1,5-naphthyridine-3-carbonitrile] are 34 nM, 12 nM, above 240000 nM, 150 nM and 90000 nM.
Regarding `CCC(c1ccc(F)cc1)N1CCN(c2c(C#N)c(=O)n(C)c3ccc(Br)nc23)CC1` (single isomer, unassigned) [Example 26, 6-bromo-4-{4-[1-(4-fluorophenyl)propyl]piperazin-1-yl}-1-methyl-2-oxo-1,2-dihydro-1,5-naphthyridine-3-carbonitrile], the IC50 was 4300 nM at human DGKα [1] (setting [6]); 140 nM in assay [2]; 85000 nM at human DGKζ [3] (setting [7]); 6700 nM against human DGKα [4]; 18000 nM at human DGKζ [5] (setting [8]).
For the compound `CCC(c1ccc(F)cc1)N1CCN(c2c(C#N)c(=O)n(C)c3ccc(Br)nc23)CC1` (single isomer, unassigned) [Example 27, 6-bromo-4-{4-[1-(4-fluorophenyl)propyl]piperazin-1-yl}-1-methyl-2-oxo-1,2-dihydro-1,5-naphthyridine-3-carbonitrile], the IC50 at human DGKα [1] (setting [6]) is 110 nM; in assay [2] it was 57 nM; on human DGKζ [3] (setting [7]) it was above 240000 nM; at human DGKα [4] it was 110 nM; on human DGKζ [5] (setting [8]), above 240000 nM.
Regarding `CCC(c1ccc(F)cc1)N1CCN(c2c([N+](=O)[O-])c(=O)n(C)c3ccc(C#N)nc23)CC1` (single isomer, unassigned) [Example 33, 8-{4-[1-(4-fluorophenyl)propyl]piperazin-1-yl}-5-methyl-7-nitro-6-oxo-5,6-dihydro-1,5-naphthyridine-2-carbonitrile], the half-maximal inhibitory concentration (IC50) was determined as 750 nM at human DGKα [1] (setting [6]); 18 nM in assay [2] (Homo sapiens, Raji); 7600 nM on human DGKζ [3] (setting [9]); 1700 nM against human DGKα [4]; 1700 nM against human DGKζ [5] (setting [10]).
`CCC(c1ccc(F)cc1)N1CCN(c2c([N+](=O)[O-])c(=O)n(C)c3ccc(C#N)nc23)CC1` (single isomer, unassigned) [Example 34, 8-{4-[1-(4-fluorophenyl)propyl]piperazin-1-yl}-5-methyl-7-nitro-6-oxo-5,6-dihydro-1,5-naphthyridine-2-carbonitrile]: the IC50 on human DGKα [1] (setting [6]) was found to be 180 nM; in assay [2], 35 nM; against human DGKζ [3] (setting [9]), 23000 nM; against human DGKα [4] it was 290 nM; on human DGKζ [5] (setting [10]), 3400 nM.
For `CC(c1ccc(F)cc1)N1CCN(c2c([N+](=O)[O-])c(=O)n(C)c3ccc(C#N)nc23)CC1` (single isomer, unassigned) [Example 45, 8-(4-(1-(4-fluorophenyl)ethyl)piperazin-1-yl)-5-methyl-7-nitro-6-oxo-5,6-dihydro-1,5-naphthyridine-2-carbonitrile], the IC50 on human DGKα [1] (setting [6]) was found to be 100 nM; in assay [2] (Homo sapiens, Raji) it was 62 nM; on human DGKζ [3] (setting [7]), 36000 nM; at human DGKα [4] it was 390 nM; at human DGKζ [5] (setting [8]) it was 6800 nM.
For `Cn1c(=O)c([N+](=O)[O-])c(N2CCN(C(c3ccc(F)cc3)C3CC3)CC2)c2nc(C#N)ccc21` (single isomer, unassigned) [Example 50, 8-(4-(cyclopropyl(4-fluorophenyl)methyl)piperazin-1-yl)-5-methyl-7-nitro-6-oxo-5,6-dihydro-1,5-naphthyridine-2-carbonitrile], the 50% inhibitory concentration (IC50) was 990 nM on human DGKα [1] (setting [6]); 39 nM in assay [2]; 39000 nM on human DGKζ [3] (setting [7]); 2100 nM at human DGKα [4]; 5700 nM at human DGKζ [5] (setting [8]).
For the compound `Cn1c(=O)c([N+](=O)[O-])c(N2CCN(C(c3ccc(F)cc3)C3CC3)CC2)c2nc(C#N)ccc21` (single isomer, unassigned) [Example 51, 8-(4-(cyclopropyl(4-fluorophenyl)methyl)piperazin-1-yl)-5-methyl-7-nitro-6-oxo-5,6-dihydro-1,5-naphthyridine-2-carbonitrile], the half-maximal inhibitory concentration (IC50) against human DGKα [1] (DGKα IC50, detergent/lipid micelle substrate) was determined as 180 nM; in assay [2], 5.2 nM; at human DGKζ [3] (setting [7]), 56000 nM; against human DGKα [4] it was 330 nM; on human DGKζ [5] (setting [8]) it was 4700 nM.
